The target in one assay is T1, hDcn1^P (Homo sapiens, UniProt Q96GG9).
T1 construct: hDcn1^P corresponds to residues 62 to the C-terminal residue 259 of hDcn1; GST (cleaved yes); made in house; host or cells: E. coli BL21(DE3)Gold
The assay is described as follows: ITC binding of Ubc12/Ube2f peptides to hDcn1^P. The conditions noted are these: for ΔH: change in enthalpy; for ΔS: change in entropy. The procedure: (§1) Protein samples were buffer matched by desalting over a NAP-5 column (GE Healthcare) into 50 mM Hepes, 125 mM NaCl, 1 mM BME, pH 7.0 (ITC buffer). Peptides were dissolved by weight to a final concentration of 10 mM in ITC buffer and diluted further in ITC buffer as required for the experiments. Measurements were performed using a MicroCal ITC200. hDcn1^P or yDcn1^P were placed into the sample cell at a final concentration of 400 μM at 18° C. The peptide ligands (4 mM) were constantly injected (1.5 μl). The interval time between each injection was 3 minutes and the duration of each injection was 3 seconds. For titrations involving hE1 and yE1, proteins were placed into the sample cell at a final concentration of 25 μM at 22° C. Peptide ligands (250 μM) were constantly injected (2.5 μl). The interval time between each injection was three minutes and the duration of each injection was 5 seconds. For hCul1^ctd-Rbx1:hDcn1^P binding, proteins were buffer matched by desalting over a NAP-5 column in 25 mM Tris, 0.1 M NaCl, 1 mM BME, pH 7.6. hCul1^ctd-Rbx1 was placed into the sample cell at a final concentration of 55 μM at 22° C. hDcn1^P (550 μM) was constantly injected (2.5 μl). The interval time between each injection was 3 minutes and the duration of each injection was 5 seconds. Obtained spectra were evaluated using Origin (V 7.0) to determine heats of binding and Kd values.
The affinity of various peptides for hDcn1^P, hDcn2^P, hDcn3^P, hDcn4^P, and hDcn5^P was tested using isothermal titration calorimetry as described in Example 1 and is provided in Table 29.

Assay [1] addresses T2, hE1 for Nedd8 (APPBP1-UBA3) (Homo sapiens, UniProt Q8TBC4).
T2 construct: made in house; host or cells: E. coli
T2 sequence (Q8TBC4 22-463 limits assumed): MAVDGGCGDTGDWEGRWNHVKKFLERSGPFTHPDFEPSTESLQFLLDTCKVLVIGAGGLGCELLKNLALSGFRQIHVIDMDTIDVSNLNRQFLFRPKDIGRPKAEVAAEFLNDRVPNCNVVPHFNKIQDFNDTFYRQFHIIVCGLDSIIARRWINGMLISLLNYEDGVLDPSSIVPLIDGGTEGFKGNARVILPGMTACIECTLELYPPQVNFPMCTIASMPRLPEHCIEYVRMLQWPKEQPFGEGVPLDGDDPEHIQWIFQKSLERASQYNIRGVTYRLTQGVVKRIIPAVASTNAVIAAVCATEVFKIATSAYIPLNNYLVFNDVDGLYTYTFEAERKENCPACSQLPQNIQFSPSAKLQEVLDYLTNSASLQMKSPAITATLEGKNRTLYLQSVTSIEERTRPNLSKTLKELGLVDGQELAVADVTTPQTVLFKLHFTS
T2 sequence (Q13564 1-534 partner): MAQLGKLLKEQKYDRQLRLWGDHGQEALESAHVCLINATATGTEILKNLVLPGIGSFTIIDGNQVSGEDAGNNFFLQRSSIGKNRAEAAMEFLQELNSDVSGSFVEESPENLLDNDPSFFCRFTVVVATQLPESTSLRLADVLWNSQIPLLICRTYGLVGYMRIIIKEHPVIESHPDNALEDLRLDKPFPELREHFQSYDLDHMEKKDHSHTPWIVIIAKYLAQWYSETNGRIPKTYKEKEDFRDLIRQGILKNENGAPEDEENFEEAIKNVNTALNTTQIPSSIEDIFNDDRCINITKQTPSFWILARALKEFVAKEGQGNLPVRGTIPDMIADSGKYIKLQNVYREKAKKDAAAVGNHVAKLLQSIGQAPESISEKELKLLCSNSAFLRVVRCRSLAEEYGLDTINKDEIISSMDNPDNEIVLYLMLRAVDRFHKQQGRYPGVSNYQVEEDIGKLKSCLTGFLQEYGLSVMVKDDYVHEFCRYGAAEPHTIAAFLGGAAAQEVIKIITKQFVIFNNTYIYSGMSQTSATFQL
In words: ITC binding of Ubc12 peptides to hE1. The settings on record: for Kd / ΔH / ΔS: ITC; for Kd: protein hE1, titrant Ubc12 peptide; for ΔH / ΔS: protein hE1; for ΔH: change in enthalpy; for ΔS: change in entropy. Here is the method: as §1

Setting [2] is: Table 29, peptides with amidated carboxy-terminus, read-out: Binding Kd for hDcn1^P.
The mark [3] stands for this setting: protein hDcn1^P, titrant Ubc12 peptide, read-out: Kd.

Like-named read-outs stand apart in the source and are kept apart here. Positions of bridges follow the written chain, without caps; N, C: chain ends. Non-standard residues stand in square brackets, D forms with d. Residues, ends and D or L forms follow the SMILES beside them. No end group written: not given here. *: point of attachment. S5 = C=CCCC[C@](C)(N)C(=O)O; For = O=C*

T1 sequence (Q96GG9 62-259): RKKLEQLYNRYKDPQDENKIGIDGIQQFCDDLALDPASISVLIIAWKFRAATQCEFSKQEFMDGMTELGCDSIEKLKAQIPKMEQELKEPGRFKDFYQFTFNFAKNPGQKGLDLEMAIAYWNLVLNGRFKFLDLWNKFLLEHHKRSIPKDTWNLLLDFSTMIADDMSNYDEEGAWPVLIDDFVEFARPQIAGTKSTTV

“Ac-IKLFSLKQQKKEEESAGGTKGSSKK-NH2 [hUbc12^Ac−2−26]”: the Kd (as a rule, the constant that tells how readily two partners part at equilibrium) at hDcn1^P (setting [2]) is over 150000 nM.

As for “H-MIKLFSLKQQKKEEESAGGTKGSSKK-NH2 [hUbc12^1-26]”, at hDcn1^P (protein hDcn1^P), the ΔH is 1,259 cal/mol and the ΔS stood at 22.2 cal/mol/deg. In addition, the Kd at hDcn1^P (setting [3]) is over 130000 nM. Moreover, in assay [1], the Kd was determined as 585 nM, the ΔH is recorded as −8,881 cal/mol and the ΔS is −1.99 cal/mol/deg.

On to “Ac-IKLFSLKQQKKEEESAGGTKGSSKK-NH2 [Acetyl-hUbc12^2-26]”, for which, at hDcn1^P (protein hDcn1^P), the ΔH is 1,719 cal/mol and the ΔS stood at 24.1 cal/mol/deg. Further, the Kd at hDcn1^P (setting [3]) was over 100000 nM. For the same compound, in assay [1], the Kd was 390 nM, the ΔH is recorded as −8,899 cal/mol and the ΔS is on record as −1.24 cal/mol/deg.

Consider “Ac-MIKLFSLKQQKKEEESAGGTKGSSKK-NH2 [Acetyl-hUbc12^1-26]”, for which, at hDcn1^P (protein hDcn1^P), the ΔH is given as −6,107 cal/mol and the ΔS is listed as 5.84 cal/mol/deg. In assay [1], the affinity, expressed as Kd, was 943 nM; the ΔH is given as −9,425 cal/mol; the ΔS was −4.79 cal/mol/deg.

Consider “AcetylhUbc12^Ac1-12(5,9 Staple): Acetylated hUbc12 1-12 with Phe5 and Gln9 replaced with (S)-2-(4'-pentenyl)alanine, side-chains covalently linked (Ac-MIKL[S5]SLK[S5]QKK-NH2; staple 5-9)”, for which the “binding to E1” value in assay [1] (data not shown) is given as “no longer binds E1”.

In the case of “MIKLFSLKQQKKEEESAGGTKGSSKK-NH2 [hUbc12^1−26]”, the dissociation constant Kd on hDcn1^P (setting [2]) was over 200000 nM.

As for `CCCC[C@H](N)C(=O)N[C@H](C(=O)N[C@@H](CCCCN)C(=O)N[C@@H](CC(C)C)C(=O)N[C@@H](Cc1ccccc1)C(=O)N[C@@H](CO)C(=O)N[C@@H](CC(C)C)C(=O)N[C@@H](CCCCN)C(=O)N[C@@H](CCC(N)=O)C(=O)N[C@@H](CCC(N)=O)C(=O)N[C@@H](CCCCN)C(=O)N[C@@H](CCCCN)C(N)=O)[C@@H](C)CC` [hUbc12^1−12 (NorLeu)], the Kd at hDcn1^P (setting [2]) was over 400000 nM.

Take `CC[C@H](C)[C@H](NC(=O)[C@H](CCSC)NC=O)C(=O)N[C@@H](CCCCN)C(=O)N[C@@H](CC(C)C)C(=O)N[C@@H](Cc1ccccc1)C(=O)N[C@@H](CO)C(=O)N[C@@H](CC(C)C)C(=O)N[C@@H](CCCCN)C(=O)N[C@@H](CCC(N)=O)C(=O)N[C@@H](CCC(N)=O)C(=O)N[C@@H](CCCCN)C(=O)N[C@@H](CCCCN)C(=O)N[C@@H](CCC(=O)O)C(=O)N[C@@H](CCC(=O)O)C(=O)N[C@@H](CCC(=O)O)C(=O)N[C@@H](CO)C(=O)N[C@@H](C)C(=O)NCC(=O)NCC(=O)N[C@H](C(=O)N[C@@H](CCCCN)C(=O)NCC(=O)N[C@@H](CO)C(=O)N[C@@H](CO)C(=O)N[C@@H](CCCCN)C(=O)N[C@@H](CCCCN)C(N)=O)[C@@H](C)O` [Formyl-hUbcU^126] (For-MIKLFSLKQQKKEEESAGGTKGSSKK-NH2): on hDcn1^P (protein hDcn1^P), the ΔH is on record as −4,893 cal/mol and the ΔS is 5.79 cal/mol/deg.

For the compound `CC[C@H](C)[C@H](NC(=O)[C@H](CCSC)NC(C)=O)C(=O)N[C@@H](CCCCN)C(=O)N[C@@H](CC(C)C)C(=O)N[C@@]1(C)CCCC=CCCC[C@@](C)(C(=O)N[C@@H](CCC(N)=O)C(=O)N[C@@H](CCCCN)C(=O)N[C@@H](CCCCN)C(N)=O)NC(=O)[C@H](CCCCN)NC(=O)[C@H](CC(C)C)NC(=O)[C@H](CO)NC1=O` [Acetyl-hUbc12^1-12 (5:9Staple)] (Ac-MIKL[S5]SLK[S5]QKK-NH2; staple 5-9), on hDcn1^P (protein hDcn1^P), the ΔH was −3,386 cal/mol and the ΔS is reported as 19.3 cal/mol/deg.

Regarding `CC[C@H](C)[C@H](NC(=O)[C@H](CCSC)NC(C)=O)C(=O)N[C@@H](CCCCN)C(=O)N[C@@H](CC(C)C)C(=O)N[C@@H](Cc1ccccc1)C(=O)N[C@@H](CO)C(=O)N[C@@H](CC(C)C)C(=O)N[C@@H](CCCCN)C(=O)N[C@@H](CCC(N)=O)C(=O)N[C@@H](CCC(N)=O)C(=O)N[C@@H](CCCCN)C(=O)N[C@@H](CCCCN)C(N)=O` [Acetyl-hUbc12^1-12], at hDcn1^P (protein hDcn1^P), the ΔH is −4,992 cal/mol and the ΔS came out at 8.79 cal/mol/deg. Further, in assay [1], the equilibrium dissociation constant (Kd) was determined as 630 nM, the ΔH is given as −11,490 cal/mol and the ΔS is listed as −11.0 cal/mol/deg.
